Measured values reported in patent publication US10952992B2, “Methods of treating intraocular pressure with activators of Tie-2” (Aerpio Pharmaceuticals, Inc., priority 2015, dated 2021).
Values joined by “and” are separate entries in the source; they are usually repeats but may differ in a detail not shown here. Identical values can stand only once.

What was measured:
[1] = Example 2 aqueous humor concentrations; assay type: in vivo, male New Zealand White rabbits; conditions: for Average Peak Concentration, Aqueous Humor: suspension
Description: (§1) To measure the concentration of Compound 1 in plasma and ocular tissues following topical ocular, subcutaneous, and intravitreal administration, New Zealand White rabbits were administered Compound 1, and plasma and ocular samples were collected at pre-determined time points. Compound 1 formulations were prepared fresh on each day of dosing.
(§2) Ocular tissue samples from both eyes of each animal were collected and weights were recorded. Plasma and ocular tissue sample concentrations of Compound 1 were determined by LC-MS/MS.
(§3) Animals were anesthetized for ocular (topical) and intravitreal dosing following the 12IA7 IACUC protocol. Each rabbit received a bolus dose of test formulation either via topical ocular administration 3 times daily on Days 1 and 2 (at 0, 6, and 12 hours), and once on Day 3 (at 0 hours) into both eyes; via intravitreal administration into both eyes once on Day 1 (at 0 hours); or via subcutaneous administration 2 times daily on Days 1 and 2 (at 0 and 8 hours) and once daily on Day 3 (at 0 hours). Doses were given within an approximately 1 hour window each day where applicable.
(§4) On Day 1, for intravitreal administration, or on Day 3, for topical ocular and subcutaneous administration, at the appropriate ocular tissue collection time points, animals were euthanized and both eyes were enucleated immediately. Following enucleation, each eye was rinsed with phosphate-buffered saline. Ocular tissue samples from both eyes of each animal were collected at predetermined time points and weights were recorded. All the samples were frozen immediately on dry ice, and stored at −60° C. to −80° C. pending bioanalysis.
(§5) An LC-MS/MS method was developed for the determination of Compound 1 in rabbit aqueous tissues (plasma, aqueous and vitreous humor) and solid ocular tissue samples. A pre-study standard curve was analyzed to determine the specificity, range, and lower limit of quantitation of the method. Plasma and tissue homogenate study samples were extracted and analyzed. All the samples were treated identically to the standards.
(§6) One eight-point standard curve was used in each analytical batch. To be accepted, each batch must have had at least five of eight standards with accuracy within ±20% of nominal, except at the lower limit of quantification (LLOQ), where ±25% was acceptable.

[2] = Example 2 iris, retina, choroid and cornea tissue concentrations; assay type: in vivo, male New Zealand White rabbits; conditions: for Average / Conc. (ng/g) OS / Conc. (ng/mL) OS / Conc. (ng/mL) OD / Conc. (ng/g) OD: subcutaneous 5 mg/kg/dose (Group 3), free acid; for Average Peak Concentration, Choroid / Average Peak Concentration, Cornea / Average Peak Concentration, Iris / Average Peak Concentration, Retina: suspension
Description: as §1, §2, §3, §4, §5, §6

[3] = Group 3 (subcutaneous 5 mg/kg/dose, suspension), 2.0 hr
[4] = Group 3 (subcutaneous 5 mg/kg/dose, suspension), 4.0 hr
[5] = Group 3: subcutaneous 5 mg/kg/dose
[6] = Group 5 (intravitreal 2.5 mg/eye, suspension), 6.0 hr
[7] = Group 5 (intravitreal 2.5 mg/eye, suspension), 24 hr
[8] = Group 5 (intravitreal 2.5 mg/eye, suspension), 72 hr
[9] = Group 5: intravitreal 1.54 mg/kg/dose
[10] = Choroid, 1 hr, listed as Compound 1 (free acid)

aqueous humor Average Conc. ([1]; Group 3 (subcutaneous 5 mg/kg/dose, suspension), 0.5 hr): 1.21 ng/g | aqueous humor Average Conc. ([1]; Group 3 (subcutaneous 5 mg/kg/dose, suspension), 1.0 hr): 0.41 ng/g | aqueous humor Average Conc. [1, 3]: 0.66 ng/g | aqueous humor Conc. OD [1, 3]: 0.601 ng/mL | aqueous humor Average Conc. [1, 4]: 0.51 ng/g | aqueous humor Conc. OS [1, 4]: 0.229 ng/mL | Average Peak Concentration, Aqueous Humor [1, 5]: 1.21 ng/g | aqueous humor Average Conc. [1, 6]: 26400 ng/g | aqueous humor Conc. OD [1, 6]: 34200 ng/mL and 23400 ng/mL | aqueous humor Average Conc. [1, 7]: 4270 ng/g | aqueous humor Conc. OD [1, 7]: 3890 ng/mL and 5540 ng/mL | aqueous humor Average Conc. ([1]; Group 5 (intravitreal 2.5 mg/eye, suspension), 48 hr): 915 ng/g | aqueous humor Average Conc. [1, 8]: 120 ng/g | aqueous humor Conc. OD [1, 8]: 145 ng/mL and 94.1 ng/mL | Average Peak Concentration, Aqueous Humor [1, 9]: 26400 ng/g | Average ([2]; Choroid, 0.5 hr): 127 ng/g | Conc. (ng/g) OS ([2]; Choroid, 0.5 hr): 83.1 ng/g and 154 ng/g | Conc. (ng/mL) OS ([2]; Choroid, 0.5 hr): 7.55 ng/mL and 14.0 ng/mL | Average ([2]; Choroid, 1 hr): 83.3 ng/g | Conc. (ng/mL) OD ([2]; Choroid, 1 hr): 8.65 ng/mL | Conc. (ng/g) OD [2, 10]: 66.4 ng/g and 95.2 ng/g | Conc. (ng/g) OS [2, 10]: 88.1 ng/g and 83.6 ng/g | Conc. (ng/mL) OD [2, 10]: 6.04 ng/mL | Conc. (ng/mL) OS [2, 10]: 8.01 ng/mL and 7.60 ng/mL | Average ([2]; Choroid, 2 hr): 47.7 ng/g | Conc. (ng/g) OD ([2]; Choroid, 2 hr): 36.5 ng/g and 46.9 ng/g | Conc. (ng/g) OS ([2]; Choroid, 2 hr): 53.2 ng/g and 54.3 ng/g | Conc. (ng/mL) OD ([2]; Choroid, 2 hr): 3.32 ng/mL and 4.26 ng/mL | Conc. (ng/mL) OS ([2]; Choroid, 2 hr): 4.84 ng/mL and 4.94 ng/mL | Average ([2]; Choroid, 4 hr): 61.0 ng/g | Conc. (ng/g) OD ([2]; Choroid, 4 hr): 53.0 ng/g and 51.2 ng/g | Conc. (ng/mL) OD ([2]; Choroid, 4 hr): 4.82 ng/mL and 4.65 ng/mL | Average ([2]; Cornea, 0.5 hr): 7.96 ng/g | Conc. (ng/g) OD ([2]; Cornea, 0.5 hr): 6.05 ng/g | Conc. (ng/g) OS ([2]; Cornea, 0.5 hr): 9.87 ng/g | Average ([2]; Cornea, 1 hr): 12.2 ng/g | Conc. (ng/g) OD ([2]; Cornea, 1 hr): 12.2 ng/g | Conc. (ng/mL) OS ([2]; Cornea, 1 hr): BLOQ | Average ([2]; Cornea, 2 hr): 5.65 ng/g | Conc. (ng/g) OD ([2]; Cornea, 2 hr): 5.65 ng/g | Conc. (ng/mL) OS ([2]; Cornea, 2 hr): BLOQ | Average ([2]; Cornea, 4 hr): 15.8 ng/g | Conc. (ng/g) OD ([2]; Cornea, 4 hr): 10.4 ng/g and 9.32 ng/g | Conc. (ng/mL) OD ([2]; Cornea, 4 hr): 0.942 ng/mL and 0.847 ng/mL | Average Peak Concentration, Choroid [2, 5]: 127 ng/g | Average Peak Concentration, Cornea [2, 5]: 7.96 ng/g | Average Peak Concentration, Iris [2, 5]: 50.3 ng/g | Average Peak Concentration, Retina [2, 5]: 38.7 ng/g | Average Peak Concentration, Choroid [2, 9]: 663575 ng/g | Average Peak Concentration, Cornea [2, 9]: 54560 ng/g | Average Peak Concentration, Iris [2, 9]: 210650 ng/g | Average Peak Concentration, Retina [2, 9]: 1988250 ng/g | Average ([2]; Iris, 0.5 hr): 50.3 ng/g | Conc. (ng/g) OS ([2]; Iris, 0.5 hr): 47.0 ng/g and 38.9 ng/g | Conc. (ng/mL) OS ([2]; Iris, 0.5 hr): 4.27 ng/mL and 3.54 ng/mL | Average ([2]; Iris, 1 hr): 58.0 ng/g | Conc. (ng/g) OS ([2]; Iris, 1 hr): 47.6 ng/g and 34.3 ng/g | Conc. (ng/mL) OS ([2]; Iris, 1 hr): 4.33 ng/mL and 3.12 ng/mL | Average ([2]; Iris, 2 hr): 27.6 ng/g | Conc. (ng/g) OD ([2]; Iris, 2 hr): 30.5 ng/g and 32.0 ng/g | Conc. (ng/g) OS ([2]; Iris, 2 hr): 29.5 ng/g | Conc. (ng/mL) OD ([2]; Iris, 2 hr): 2.77 ng/mL and 2.91 ng/mL | Conc. (ng/mL) OS ([2]; Iris, 2 hr): 2.68 ng/mL and 1.67 ng/mL | Average ([2]; Iris, 4 hr): 17.5 ng/g | Conc. (ng/g) OD ([2]; Iris, 4 hr): 26.5 ng/g and 17.9 ng/g | Conc. (ng/g) OS ([2]; Iris, 4 hr): 16.9 ng/g and 8.73 ng/g | Conc. (ng/mL) OD ([2]; Iris, 4 hr): 2.41 ng/mL and 1.63 ng/mL | Conc. (ng/mL) OS ([2]; Iris, 4 hr): 1.54 ng/mL and 0.794 ng/mL | Average ([2]; Retina, 0.5 hr): 38.7 ng/g | Average ([2]; Retina, 1 hr): 10.2 ng/g | Conc. (ng/g) OD ([2]; Retina, 1 hr): 10.4 ng/g | Conc. (ng/g) OS ([2]; Retina, 1 hr): 6.93 ng/g and 13.3 ng/g | Conc. (ng/mL) OS ([2]; Retina, 1 hr): 0.63 ng/mL and 1.21 ng/mL | Average ([2]; Retina, 2 hr): 10.5 ng/g | Conc. (ng/g) OD ([2]; Retina, 2 hr): 6.31 ng/g | Conc. (ng/g) OS ([2]; Retina, 2 hr): 6.93 ng/g | Average ([2]; Retina, 4 hr): 35.3 ng/g | Conc. (ng/mL) OD ([2]; Retina, 4 hr): BLOQ | Choroid Conc. OS ([2]; choroid homogenate, 6.0 hr, left eye, individual animals, intravitreal 2.5 mg/eye (~1.54 mg/kg), group 5): 63400 ng/mL and 69700 ng/mL | Choroid Conc. OD ([2]; choroid homogenate, 6.0 hr, right eye, individual animals, intravitreal 2.5 mg/eye (~1.54 mg/kg), group 5): 32800 ng/mL and 75400 ng/mL
Compound: COC(=O)N[C@@H](Cc1ccccc1)C(=O)N[C@@H](Cc1ccc(NS(=O)(=O)O)cc1)c1csc(-c2cccs2)n1 [Compound 1 free acid]
